Read-outs that look alike come from different tables or passages of the source.
Experiments:
CbcWV with CaiXPAO1 = type: cell-based, Pseudomonas aeruginosa; conditions: MKH13; pNcbcWV, pT-PA5388; SBP CaiXPAO1; substrate 10 μM; single replication
[1] = test system: S. meliloti Cho transporter ChoXWV; type: cell-based, Sinorhizobium meliloti; conditions: MKH13; pNchoXWV, Plasmid 2 None; SBP ChoX; substrate 10 μM; single replication
[2] = test system: CbcXWV from P. aeruginosa PAO1; type: cell-based, Pseudomonas aeruginosa; conditions: MKH13, pCbcPAO1; radiolabelled substrate 1 mM; mean (SE), n = 10
[3] = test system: E. coli strains MKH13 and Acella; experiment: Total uptake by E. coli strains carrying empty vector; type: cell-based, Escherichia coli
CbcWV with BetXDC3000 = type: cell-based, Pseudomonas syringae pv. tomato; conditions: MKH13; pNcbcWV, pT-D3758; SBP BetXDC3000; substrate 10 μM; single replication
BetX with CbcWV = biological target: T1, BetX with CbcWV (Pseudomonas aeruginosa, UniProt Q9HZ04); experiment: Competitive uptake, MKH13 expressing cbcWV and betX; type: cell-based; conditions: pNcbcWV, pT-PA3236, SBP BetX, [^14C]betaine 10 μM, competitor 1 mM
T1 sequence (Q9HZ04 26-285): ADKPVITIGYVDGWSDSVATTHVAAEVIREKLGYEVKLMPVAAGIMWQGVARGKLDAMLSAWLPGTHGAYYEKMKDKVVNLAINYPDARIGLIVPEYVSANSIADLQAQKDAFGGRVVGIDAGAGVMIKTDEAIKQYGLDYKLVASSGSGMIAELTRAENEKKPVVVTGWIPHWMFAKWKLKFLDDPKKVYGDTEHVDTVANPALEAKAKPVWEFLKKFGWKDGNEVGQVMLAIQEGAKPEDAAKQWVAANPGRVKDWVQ
T1 sequence (Q9HTI7 1-279 partner): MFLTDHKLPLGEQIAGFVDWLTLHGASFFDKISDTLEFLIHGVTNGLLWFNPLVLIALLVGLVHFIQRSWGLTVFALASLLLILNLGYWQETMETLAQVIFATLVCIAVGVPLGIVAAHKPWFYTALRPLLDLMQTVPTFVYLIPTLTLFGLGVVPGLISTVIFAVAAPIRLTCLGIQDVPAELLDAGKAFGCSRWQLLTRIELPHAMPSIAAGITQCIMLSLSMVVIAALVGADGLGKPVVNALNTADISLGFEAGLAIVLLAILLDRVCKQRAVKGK
T1 sequence (Q9HTI8 1-392 partner): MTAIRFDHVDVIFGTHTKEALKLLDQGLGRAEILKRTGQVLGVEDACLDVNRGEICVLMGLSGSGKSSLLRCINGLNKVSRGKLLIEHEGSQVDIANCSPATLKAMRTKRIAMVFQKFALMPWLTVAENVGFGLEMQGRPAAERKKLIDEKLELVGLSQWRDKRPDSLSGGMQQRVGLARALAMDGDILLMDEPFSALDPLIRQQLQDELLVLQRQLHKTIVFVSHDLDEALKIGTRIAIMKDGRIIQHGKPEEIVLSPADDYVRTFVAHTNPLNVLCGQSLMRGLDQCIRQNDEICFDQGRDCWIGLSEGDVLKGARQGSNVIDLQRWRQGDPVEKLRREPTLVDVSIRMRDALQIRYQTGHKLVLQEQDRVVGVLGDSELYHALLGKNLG

[4] = test system: Cbc core transporter CbcWV (PAO1) with chromosomally encoded SBPs; type: cell-based, Pseudomonas aeruginosa; conditions: pNcbcWV
[5] = test system: complete Cbc transporter CbcXWV (PAO1); type: cell-based, Pseudomonas aeruginosa; conditions: for Total uptake: pNcbcXWV; for choline uptake by CbcXWV: BT strain derivatives
CbcWV with BetXPAO1 = type: cell-based, Pseudomonas aeruginosa; conditions: MKH13; pNcbcWV, pT-PA3236; SBP BetXPAO1; substrate 10 μM; single replication
CbcWV with CaiXB728a = type: cell-based, Pseudomonas syringae pv. syringae; conditions: MKH13; pNcbcWV, pT-B2916; SBP CaiXB728a; substrate 10 μM; single replication
CbcXWV from DC3000 = type: cell-based, Pseudomonas syringae pv. tomato; conditions: Acella, pET-cbcDC3000; 1 mM IPTG; substrate 1 mM; mean (SE), n = 10
[6] = test system: S. meliloti ChoXWV transporter; type: cell-based, Sinorhizobium meliloti
[7] = test system: cbcXWV from PAO1 in QAC transporter-deficient BT strain; type: cell-based, Pseudomonas aeruginosa; conditions: BT(pCbcPAO1), unlabelled competitor 0.5 mM, 10 min
CaiX with CbcWV = type: cell-based, Pseudomonas aeruginosa; conditions: MKH13; pNcbcWV, pT-PA5388; SBP CaiX; [^14C]carnitine 10 μM; competitor 1 mM
[8] = test system: P. syringae BT-derived mutants; type: cell-based, Pseudomonas syringae pv. syringae; conditions: pN
[9] = Acella, pET15b, 1 mM IPTG, substrate 1 mM, single colony
[10] = MKH13, pME6041, radiolabelled substrate 1 mM, mean (SE), n = 10
[11] = host BT0028Ko, substrate 10 μM, mean (SE), n = 2
[12] = host BT2916Ko, substrate 10 μM, single replication
[13] = host BT3758Ko, substrate 10 μM, mean (SE), n = 3
[14] = pNchoXW, host BT0028Ko, substrate 10 μM, mean (SE), n = 2
[15] = pNchoXW, host BT3758Ko, substrate 10 μM, mean (SE), n = 3
[16] = pNchoXWV, host BT2916Ko, substrate 10 μM, single replication
[17] = host BT0028Ko, substrate 1 mM, mean (SE), n = 2
[18] = host BT2916Ko, substrate 1 mM, single replication
[19] = host BT3758Ko, substrate 1 mM, mean (SE), n = 3

C[N+](C)(C)CC(=O)O [Betaine, glycine betaine]
Total uptake (CbcWV with CaiXPAO1): 0 nmol (mg protein)^−1
Total uptake [1]: 2.7 nmol (mg protein)^−1
Total uptake [2]: 5.8 (1.1) nmol (mg protein)^−1
Total uptake [3, 9]: 8.2 nmol (mg protein)^−1
Total uptake [3, 10]: 0.5 (0.5) nmol (mg protein)^−1
Total uptake (CbcWV with BetXDC3000): 6.1 nmol (mg protein)^−1
% inhibition of uptake of substrate by unlabelled competitor (BetX with CbcWV): 94%
Total uptake [4, 11]: 17.2 (0.2) nmol (mg protein)^−1
Total uptake [4, 12]: 17.2 nmol (mg protein)^−1
Total uptake [4, 13]: 0.1 (0.01) nmol (mg protein)^−1
Total uptake [5, 11]: 16.1 (0.41) nmol (mg protein)^−1
Total uptake [5, 12]: 16.0 nmol (mg protein)^−1
Total uptake [5, 13]: 14.3 (0.24) nmol (mg protein)^−1
Total uptake (CbcWV with BetXPAO1): 21.6 nmol (mg protein)^−1
Total uptake (CbcWV with CaiXB728a): 0 nmol (mg protein)^−1
Total uptake (CbcXWV from DC3000): 17.0 (1.8) nmol (mg protein)^−1
Total uptake [6, 14]: 2.8 (0.3) nmol (mg protein)^−1
Total uptake [6, 15]: 3.0 (0.64) nmol (mg protein)^−1
Total uptake [6, 16]: 3.0 nmol (mg protein)^−1
% inhibition of uptake of [^14C]substrate ([7]; [^14C]betaine 5 μM): 83%
% inhibition of uptake of [^14C]substrate ([7]; [^14C]carnitine 5 μM): 84%
% inhibition of uptake of [^14C]substrate ([7]; [^14C]choline 5 μM): 9%
% inhibition of uptake of substrate by unlabelled competitor (CaiX with CbcWV): 5%
Total uptake ([8]; host BT0028Ko, substrate 10 μM): 0.0 nmol (mg protein)^−1
Total uptake [8, 12]: 0.0 nmol (mg protein)^−1
Total uptake ([8]; host BT3758Ko, substrate 10 μM): 0.0 nmol (mg protein)^−1

C[N+](C)(C)C[C@H](O)CC(=O)[O-] [Carnitine, L-carnitine]
Total uptake (CbcWV with CaiXPAO1): 3.8 nmol (mg protein)^−1
Total uptake [1]: 0 nmol (mg protein)^−1
Total uptake [2]: 0.8 (0.4) nmol (mg protein)^−1
Total uptake [3, 9]: 0 nmol (mg protein)^−1
Total uptake [3, 10]: 0.5 (0.3) nmol (mg protein)^−1
Total uptake (CbcWV with BetXDC3000): 0 nmol (mg protein)^−1
% inhibition of uptake of substrate by unlabelled competitor (BetX with CbcWV): 3%
Total uptake [4, 11]: 16.3 (0.91) nmol (mg protein)^−1
Total uptake [4, 12]: 0.3 nmol (mg protein)^−1
Total uptake [4, 13]: 15.1 (0.16) nmol (mg protein)^−1
Total uptake [5, 11]: 7.0 (0.4) nmol (mg protein)^−1
Total uptake [5, 12]: 0.5 nmol (mg protein)^−1
Total uptake [5, 13]: 13.0 (0.3) nmol (mg protein)^−1
Total uptake (CbcWV with BetXPAO1): 0 nmol (mg protein)^−1
Total uptake (CbcWV with CaiXB728a): 3.7 nmol (mg protein)^−1
Total uptake (CbcXWV from DC3000): 0.59 (0.82) nmol (mg protein)^−1
Total uptake [6, 14]: 1.2 (0.1) nmol (mg protein)^−1
Total uptake [6, 15]: 1.8 (0.4) nmol (mg protein)^−1
Total uptake [6, 16]: 0.1 nmol (mg protein)^−1
% inhibition of uptake of [^14C]substrate ([7]; [^14C]betaine 5 μM): 2%
% inhibition of uptake of [^14C]substrate ([7]; [^14C]carnitine 5 μM): 94%
% inhibition of uptake of [^14C]substrate ([7]; [^14C]choline 5 μM): 1%
% inhibition of uptake of substrate by unlabelled competitor (CaiX with CbcWV): 91%
Total uptake ([8]; host BT0028Ko, substrate 10 μM): 0.0 nmol (mg protein)^−1
Total uptake [8, 12]: 0.1 nmol (mg protein)^−1
Total uptake ([8]; host BT3758Ko, substrate 10 μM): 0.0 nmol (mg protein)^−1

C[N+](C)(C)CCO [Choline, choline]
Total uptake (CbcWV with CaiXPAO1): 0 nmol (mg protein)^−1
Total uptake [1]: 4.7 nmol (mg protein)^−1
Total uptake [2]: 12.1 (1.1) nmol (mg protein)^−1
Total uptake [3, 9]: 0 nmol (mg protein)^−1
Total uptake [3, 10]: 0.2 (0.1) nmol (mg protein)^−1
Total uptake (CbcWV with BetXDC3000): 0 nmol (mg protein)^−1
% inhibition of uptake of substrate by unlabelled competitor (BetX with CbcWV): −8%
Total uptake [4, 11]: 0.11 (0.05) nmol (mg protein)^−1
Total uptake [4, 17]: 8.9 (1.4) nmol (mg protein)^−1
Total uptake [4, 12]: 0.15 nmol (mg protein)^−1
Total uptake [4, 18]: 8.6 nmol (mg protein)^−1
Total uptake [4, 13]: 0.15 (0.05) nmol (mg protein)^−1
Total uptake [4, 19]: 7.1 (0.6) nmol (mg protein)^−1
choline uptake by CbcXWV ([5]; choline 10 μM (summary of Table 4)): 16 to 18 nmol (mg protein)^−1
choline uptake by CbcXWV ([5]; choline 1 mM (summary of Table 4)): 562–648 nmol (mg protein)^−1
share of choline uptake mediated by CbcX ([5]; at low (10 μM) and high (1 mM) [^14C]choline concentrations, BT derivatives): approximately 99%
Total uptake [5, 11]: 18.2 (0.36) nmol (mg protein)^−1
Total uptake [5, 17]: 562 (6.8) nmol (mg protein)^−1
Total uptake [5, 12]: 16.2 nmol (mg protein)^−1
Total uptake [5, 18]: 644 nmol (mg protein)^−1
Total uptake [5, 13]: 16.4 (0.18) nmol (mg protein)^−1
Total uptake [5, 19]: 648 (27.5) nmol (mg protein)^−1
Total uptake (CbcWV with BetXPAO1): 0 nmol (mg protein)^−1
Total uptake (CbcWV with CaiXB728a): 0 nmol (mg protein)^−1
Total uptake (CbcXWV from DC3000): 15.0 (2.4) nmol (mg protein)^−1
Total uptake [6, 14]: 7.8 (0.07) nmol (mg protein)^−1
Total uptake ([6]; pNchoXW, host BT0028Ko, substrate 1 mM, mean (SE), n = 2): 8.5 (1.4) nmol (mg protein)^−1
Total uptake [6, 15]: 8.6 (1.28) nmol (mg protein)^−1
Total uptake ([6]; pNchoXW, host BT3758Ko, substrate 1 mM, mean (SE), n = 3): 7.4 (0.8) nmol (mg protein)^−1
Total uptake [6, 16]: 6.5 nmol (mg protein)^−1
Total uptake ([6]; pNchoXWV, host BT2916Ko, substrate 1 mM, single replication): 6.1 nmol (mg protein)^−1
% inhibition of uptake of [^14C]substrate ([7]; [^14C]betaine 5 μM): −6%
% inhibition of uptake of [^14C]substrate ([7]; [^14C]carnitine 5 μM): 77%
% inhibition of uptake of [^14C]substrate ([7]; [^14C]choline 5 μM): 84%
% inhibition of uptake of substrate by unlabelled competitor (CaiX with CbcWV): 5%
Total uptake ([8]; host BT0028Ko, substrate 10 μM): 0.0 nmol (mg protein)^−1
Total uptake ([8]; host BT0028Ko, substrate 1 mM): 0 nmol (mg protein)^−1
Total uptake [8, 12]: 0.0 nmol (mg protein)^−1
Total uptake [8, 18]: 0 nmol (mg protein)^−1
Total uptake ([8]; host BT3758Ko, substrate 10 μM): 0.0 nmol (mg protein)^−1
Total uptake ([8]; host BT3758Ko, substrate 1 mM): 0 nmol (mg protein)^−1
